Consider 15 compounds from US20100016307A1, “NOVEL COMPOUNDS” (priority 2006, published 2010).

Assay [1] has as its target T1, c-Met/cFms chimeric receptor in c-Met/cFms/NIH3T3 cells (Homo sapiens, UniProt P08581).
T1 construct: The transmembrane/cytoplasmic domain fragment of c-Met (nucleotides 933 to 1390); expressed in transfected cells; the other entry of the earlier key: CSF1R (P07333, Macrophage colony-stimulating factor 1 receptor)
Kind of assay: Cell-based assay for c-Met autophosphorylation (ELISA). The note with it: compounds 1 h at 37° C., M-CSF (600 ng/ml) stimulation 10 min. An excerpt:
To generate a chimeric cDNA clone of c-Met with cFms, the extracellular domain of colony stimulating factor 1 receptor (CSF1R encoded by cFms gene) was fused with the transmembrane and cytoplasmic domain of c-Met. Reverse-transcribed RNA from human placenta was used as template to clone c-Met. The transmembrane/cytoplasmic domain fragment of c-Met (nucleotides 933 to 1390) containing a NotI site at both 5′- and 3′-end was generated by polymerase chain reaction (PCR) using following two oligonucleotides;
The resulting c-Met cDNA was cloned into pCR2.1-TOPO vector (c-Met/pCR2.1-TOPO). The extracellular domain fragment of cFms (nucleotides 1 to 512) containing BamHI site at 5′-end and NotI site at 3′-end was generated from human placenta cDNA by PCR using two oligonucleotides;
The resulting cFms cDNA was cloned into pcDNA3.1 vector (Invitrogen) using the BamHI and NotI sites (cFms/pcDNA3.1). To generate complete chimeric construct, the c-Met fragment (transmembrane and cytoplasmic domain) was digested with NotI sites (in c-Met/pCR2.1-TOPO vector) and then subcloned into cFms/pcDNA3.1 vector by NotI site (c-Met/cFms/pcDNA3.1).
NIH3T3 cells were grown in DMEM supplemented with 10% fetal bovine serum. NIH3T3 cells were transfected with c-Met/cFms/pcDNA3.1 vector alone using the calcium phosphate method according to the manufacturer's instructions. Three days after transfection, cells were selected with G418 (0.4 mgml^−1) for 14 days and the expression of c-Met chimeric receptor in the G418-resistant colonies of NIH3T3 (c-Met/cFms/NIH3T3) cells was analyzed by immunoblot. Autophosphorylation of c-Met induced by the stimulation with M-SCF, the ligand for CSF1R, was analyzed by immunoprecipitation and immunoblot, and prominent stable transfectant was selected for c-Met autophosphorylation assay. […]
c-Met/cFms/NIH3T3 cells were plated at 1×10^5 cells/well in collagen-coated 96-well microtitre plates and grown 24 h under standard culture conditions, followed by serum starvation for 1 h. The cells were incubated with compounds for 1 h at 37° C. and followed by M-CSF (600 ngml^−1) stimulation for 10 min at 37° C. The media was removed and the cells were lysed with 120 ul/well of lysis buffer (20 mM Tris-HCl pH8.0, 137 mM NaCl, 2 mM EDTA, 10% glycerol, 1% Triton X-100, 1 mM Na3VO4 and Protease Inhibitor Cocktail (Complete mini EDTA-free, Roche)). Then 100 ul/well of lysate was transferred to the antibody-coated (50 ng/well goat anti-cFms antibody in PBS) ELISA plate and incubated overnight at 4° C. Plates were washed five times with PBST (PBS containing 0.05% Tween-20). Primary antibody (biotin-conjugated anti-phosphotyrosine monoclonal antibody, PIERCE) was diluted 1:10,000 in PBST containing 1% BSA, added (100 ul/well) and incubated for 2 h at room temperature. After washing the plates five times with washing buffer, 100 ul/well of HRP-conjugated streptavidin (PIERCE) in PBST containing 1% BSA was added and incubated for 30 min at room temperature. After washing five times with PBST, 100 ul/well of SuperSignal ELISA Femto Substrate (PIERCE) was added and incubated for almost 1 min at room temperature. Chemiluminescence was measured using Wallac 1420 multilabel counter.
The IC50 was determined by using XLfit software (IDBS) with four-parameters, sigmoidal dose-response equation.

The target in assay [2] is T2, human Met Kinase (His6-GST fusion, aa 956-1390) (Homo sapiens, UniProt P08581).
T2 construct: His6 (N); GST (Glutathione-S-Transferase) (N); made in house; host or cells: baculovirus expression system in Sf9 cells
Description: In vitro screen: kinase assay of purified Met kinase. Format: biochemical. The following applies: purified Met 1 nM, 10 μM ATP, 1 μM peptide substrate, 1 hour at room temperature; read-out: pIC50 values at the c-Met receptor (in vitro screen results) (converted). As for the experimental part:
The peptide substrate, Biotin-aminohexyl-EEEEYFELVAKKKK-amide was purchased from SynPep Solid sample is dissolved at approximately 2.5 mM in water (concentration determined by amino acid analysis) and aliquots stored at −20° C.
Met Kinase: A fusion protein consisting of His6-tagged Glutathione-S-Transferase (GST) and amino acid residues 956-1390 of human Met Kinase (aa 956-1390 of Entrez Protein Accession # EAL24359.1 (met proto-oncogene (hepatocyte growth factor receptor) [Homo sapiens])) from “www.ncbi.nlm.nih.gov/entrez/”) is purified from baculovirus expression system in Sf9 cells using Ni chelate column, GSH column, followed by size exclusion chromatography. Purity greater than 90%, estimated by SDS-PAGE, is achieved. Samples in 25 mM HEPES pH 7.5, 100 mM NaCl, 0.1 mM EDTA are stored at −80° C. until use.
Assays are performed in 96 well (Costar, Catalog No. 3789) or 384 well plates (Costar, Catalog No. 3705). Assay conditions for the peptide phosphorylation reaction (in 10, 20, 25, or 40 μl volume) mix are 100 mM Hepes buffer, pH 7.4; 0.1 mgml^−1 BSA; 5 mM MgCl2; 1 mM DTT; 10 μM ATP; purified Met (1 nM final); and 1 μM peptide substrate. Compounds, titrated in DMSO, are evaluated at concentrations ranging from 50 μM to 0.2 nM. […] Reactions are incubated for 1 hour at room temperature and are stopped by addition of detection reagents containing, at final detection volume, 12.5 mM EDTA; 100 mM Hepes; 0.1 mg/ml BSA; 8 nM Streptavidin APC (Perkin Elmer catalog #CR130-150); 1 nM Europium-labelled anti-phosphotyrosine antibody (Perkin Elmer catalog #AD0067). Under the assay conditions defined above, the Km (apparent) for ATP is determined to be 40 μM.
The data for compound dose responses were plotted as % Inhibition, calculated with the data reduction formula 100*(1−[(U1−C2)/(C1−C2)]), versus concentration of compound, where U is the unknown value, C1 is the average control value obtained for DMSO, and C2 is the average control value obtained for 0.05M EDTA. Data were fitted to the curve described by: y=((Vmax*x)/(K+x)) where Vmax is the upper asymptote and K is the IC50. The results for each compound were recorded as pIC50 calculated as follows: pIC50=−Log 10(K).

T1 sequence (P08581 with tags, fused parts or gaps): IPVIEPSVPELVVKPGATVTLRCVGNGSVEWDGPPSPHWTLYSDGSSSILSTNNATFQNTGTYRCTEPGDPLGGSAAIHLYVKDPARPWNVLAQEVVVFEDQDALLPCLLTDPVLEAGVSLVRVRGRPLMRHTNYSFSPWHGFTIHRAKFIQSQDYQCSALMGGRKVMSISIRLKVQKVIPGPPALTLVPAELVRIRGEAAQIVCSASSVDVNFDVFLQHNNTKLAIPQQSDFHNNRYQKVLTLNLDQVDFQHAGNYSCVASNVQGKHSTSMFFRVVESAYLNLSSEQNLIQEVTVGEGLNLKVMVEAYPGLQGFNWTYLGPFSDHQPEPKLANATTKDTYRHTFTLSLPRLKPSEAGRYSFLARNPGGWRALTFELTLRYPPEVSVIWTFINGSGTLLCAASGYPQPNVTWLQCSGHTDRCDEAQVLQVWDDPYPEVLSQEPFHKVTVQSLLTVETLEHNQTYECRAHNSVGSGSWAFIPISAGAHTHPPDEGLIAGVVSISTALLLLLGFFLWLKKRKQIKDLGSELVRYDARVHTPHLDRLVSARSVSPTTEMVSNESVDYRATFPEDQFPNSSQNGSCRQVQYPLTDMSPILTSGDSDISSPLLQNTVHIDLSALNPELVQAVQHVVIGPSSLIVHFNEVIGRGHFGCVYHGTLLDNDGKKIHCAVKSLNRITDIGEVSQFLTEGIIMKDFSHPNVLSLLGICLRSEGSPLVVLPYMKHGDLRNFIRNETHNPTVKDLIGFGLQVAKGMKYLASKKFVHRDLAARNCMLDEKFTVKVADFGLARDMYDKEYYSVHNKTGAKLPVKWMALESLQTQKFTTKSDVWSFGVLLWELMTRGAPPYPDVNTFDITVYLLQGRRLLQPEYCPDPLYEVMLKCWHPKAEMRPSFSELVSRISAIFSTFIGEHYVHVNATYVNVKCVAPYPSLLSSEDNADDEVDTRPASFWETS
T2 sequence (P08581 956-1390): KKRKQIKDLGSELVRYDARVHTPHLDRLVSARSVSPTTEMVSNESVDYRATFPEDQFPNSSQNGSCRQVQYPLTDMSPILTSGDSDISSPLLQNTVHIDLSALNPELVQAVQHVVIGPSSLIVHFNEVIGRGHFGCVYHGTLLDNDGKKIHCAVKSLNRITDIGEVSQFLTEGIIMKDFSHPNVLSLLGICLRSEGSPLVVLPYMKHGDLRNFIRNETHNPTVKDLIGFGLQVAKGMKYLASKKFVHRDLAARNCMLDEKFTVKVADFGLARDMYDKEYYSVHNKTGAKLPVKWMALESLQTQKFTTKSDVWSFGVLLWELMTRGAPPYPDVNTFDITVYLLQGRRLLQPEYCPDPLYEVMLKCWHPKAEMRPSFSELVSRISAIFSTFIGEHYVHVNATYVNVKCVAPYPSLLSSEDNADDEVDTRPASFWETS

`O=C(NCCc1c[nH]cn1)c1cc2c(Nc3ccc(NC(=O)C4(C(=O)Nc5ccc(F)cc5)CC4)cc3)ccnc2[nH]1` [Example 20, N^1-(4-Fluorophenyl)-N^1-(4-{[2-({[2-(1H-imidazol-4-yl)ethyl]amino}carbonyl)-1H-pyrrolo[2,3-b]pyridin-4-yl]amino}phenyl)-1,1-cyclopropane dicarboxamide]: the IC50 in assay [1] lay in the range of 3.16 to 31.6 µM.

On to `O=C(Nc1ccc(F)cc1)C1(C(=O)Nc2ccc(Nc3ccnc4[nH]ccc34)cc2)CC1` [Example 15, N^1-(4-Fluorophenyl)-N^1-[4-(1H-pyrrolo[2,3-b]pyridin-4-ylamino)phenyl]-1,1-cyclopropanedicarboxamide], for which the IC50 in assay [2] was 0.1 to 1 µM.

With `O=C(NCCN1CCOCC1)c1cc2c(Oc3ccc(NC(=O)C4(C(=O)Nc5ccc(F)cc5)CC4)cc3)ccnc2[nH]1` [Example 4, N^1-(4-Fluorophenyl)-N^1-(4-{[2-({[2-(4-morpholinyl)ethyl]amino}carbonyl)-1H-pyrrolo[2,3-b]pyridin-4-yl]oxy}phenyl)-1,1-cyclopropane dicarboxamide], the IC50 in assay [2] is < 0.01 µM.

Turning to `CS(=O)(=O)CCNC(=O)c1cc2c(Nc3ccc(NC(=O)C4(C(=O)Nc5ccc(F)cc5)CC4)cc3)ccnc2[nH]1` [Example 21, N^1-(4-Fluorophenyl)-N^1-(4-{[2-({[2-(methylsulfonyl)ethyl]amino}carbonyl)-1H-pyrrolo[2,3-b]pyridin-4-yl]amino}phenyl)-1,1-cyclopropane dicarboxamide], the IC50 in assay [1] is 3.16 to 31.6 µM.

For the compound `CN(C)CCCNC(=O)c1cc2c(Oc3ccc(NC(=O)C4(C(=O)Nc5ccc(F)cc5)CC4)cc3)ccnc2[nH]1` [Example 5, N^1-(4-{[2-({[3-(Dimethylamino)propyl]amino}carbonyl)-1H-pyrrolo[2,3-b]pyridin-4-yl]oxy}phenyl)-N^1-(4-fluorophenyl)-1,1-cyclopropane dicarboxamide], the IC50 in assay [2] was < 0.01 µM.

`CCOC(=O)c1cc2c(Nc3ccc(NC(=O)C4(C(=O)Nc5ccc(F)cc5)CC4)cc3)ccnc2[nH]1` [Example 17, Ethyl 4-[(4-{[(1-{[(4-fluorophenyl)amino]carbonyl}cyclopropyl)carbonyl]amino}phenyl)amino]-1H-pyrrolo[2,3-b]pyridine-2-carboxylate] had an IC50 in assay [1] of 1 to 3.16 µM.

As for `O=C(NCCO)c1cc2c(Oc3ccc(NC(=O)C4(C(=O)Nc5ccc(F)cc5)CC4)cc3)ccnc2[nH]1` [Example 7, N^1-(4-Fluorophenyl)-N^1-{4-[(2-{[(2-hydroxyethyl)amino]carbonyl}-1H-pyrrolo[2,3-b]pyridin-4-yl)oxy]phenyl}-1,1-cyclopropanedicarboxamide], the IC50 in assay [2] is < 0.01 µM.

On to `COc1ccccc1NC(=O)c1cc2c(Oc3ccc(NC(=O)C4(C(=O)Nc5ccc(F)cc5)CC4)cc3)ccnc2[nH]1` [Example 13, N^1-(4-Fluorophenyl)-N^1-(4-{[2-({[2-(methyloxy)phenyl]amino}carbonyl)-1H-pyrrolo[2,3-b]pyridin-4-yl]oxy}phenyl)-1,1-cyclopropane dicarboxamide], for which, in assay [1], the IC50 lay within 3.16 to 31.6 µM.

As for `O=C(NCCN1CCNCC1)c1cc2c(Oc3ccc(NC(=O)C4(C(=O)Nc5ccc(F)cc5)CC4)cc3)ccnc2[nH]1` [Example 3, N^1-(4-Fluorophenyl)-N^1-(4-{[2-({[2-(1-piperazinyl)ethyl]amino}carbonyl)-1H-pyrrolo[2,3-b]pyridin-4-yl]oxy}phenyl)-1,1-cyclopropane dicarboxamide], the IC50 in assay [1] was in the range of 1 to 3.16 µM.

Consider `COc1ccccc1CNC(=O)c1cc2c(Oc3ccc(NC(=O)C4(C(=O)Nc5ccc(F)cc5)CC4)cc3)ccnc2[nH]1` [Example 12, N^1-(4-Fluorophenyl)-N^1-[4-({2-[({[2-(methyloxy)phenyl]methyl}amino)carbonyl]-1H-pyrrolo[2,3-b]pyridin-4-yl}oxy)phenyl]-1,1-cyclopropane dicarboxamide], for which the IC50 in assay [1] lay in the range of 1 to 3.16 µM.

In the case of `O=C(NCCc1c[nH]cn1)c1cc2c(Oc3ccc(NC(=O)C4(C(=O)Nc5ccc(F)cc5)CC4)cc3)ccnc2[nH]1` [Example 9], the IC50 in assay [2] is < 0.01 µM.

Turning to `O=C(NCCN1CCOCC1)c1cc2c(Nc3ccc(NC(=O)C4(C(=O)Nc5ccc(F)cc5)CC4)cc3)ccnc2[nH]1` [Example 19, N^1-(4-Fluorophenyl)-N^1-(4-{[2-({[2-(4-morpholinyl)ethyl]amino}carbonyl)-1H-pyrrolo[2,3-b]pyridin-4-yl]amino}phenyl)-1,1-cyclopropane dicarboxamide], in assay [1], the IC50 was 1 to 3.16 µM.

Consider `O=C(Nc1ccc(F)cc1)C1(C(=O)Nc2ccc(Nc3ccnc4[nH]c(-c5ccccc5)cc34)cc2)CC1` [Example 22, N^1-(4-Fluorophenyl)-N^1-{4-[(2-phenyl-1H-pyrrolo[2,3-b]pyridin-4-yl)amino]phenyl}-1,1-cyclopropanedicarboxamide], for which the IC50 in assay [1] lay within 3.16 to 31.6 µM.

`CS(=O)(=O)CCNC(=O)c1cc2c(Oc3ccc(NC(=O)C4(C(=O)Nc5ccc(F)cc5)CC4)cc3)ccnc2[nH]1` [Example 1, N^1-(4-Fluorophenyl)-N^1-(4-{[2-({[2-(methylsulfonyl)ethyl]amino}carbonyl)-1H-pyrrolo[2,3-b]pyridin-4-yl]oxy}phenyl)-1,1-cyclopropane dicarboxamide]: the IC50 in assay [2] was < 0.01 µM.

Turning to `CN(C)c1ccc(CNC(=O)c2cc3c(Oc4ccc(NC(=O)C5(C(=O)Nc6ccc(F)cc6)CC5)cc4)ccnc3[nH]2)cc1` [Example 11, N^1-[4-({2-[({[4-(Dimethylamino)phenyl]methyl}amino)carbonyl]-1H-pyrrolo[2,3-b]pyridin-4-yl}oxy)phenyl]-N^1-(4-fluorophenyl)-1,1-cyclopropane dicarboxamide], the IC50 in assay [1] was 1 to 3.16 µM.
